Test results: US20180369195A1, “COMBINATION THERAPY FOR TREATMENT OF MELANOMA” (The Regents of the University of California, priority 2015, published 2018)

Key:
[1] = system: G-361 cell-derived tumor xenografts; experiment: G-361 melanoma tumor xenograft growth in athymic nude mice; format: in vivo
Experimental: Approximately 1 million G361 melanoma cells in a total volume of 0.1 ml of Matrigel were injected subcutaneously into each lateral flank of NIH III athymic nude mice. The resulting tumors were allowed to grow to a mean starting volume of 146±10 mm^3. […] The resulting tumor volumes were measured every other day for four weeks using calipers. The tumor volumes were calculated using the standard formula: (Width×Length)/2, and changes in tumor volumes were calculated using the formula: 100+{(Tf−Ti)/Ti×100}, where Tf is the final mean tumor volume and Ti is the initial mean tumor volume. At terminal sacrifice, tumor xenografts were harvested, and a portion of each tumor was fixed in 4% para-formaldehyde for 1 hour at room temperature, followed by a phosphate-buffered saline (PBS) wash and subsequently immersed in […] overnight at 4° C. The resulting tissues were embedded in OCT and 10 μm thin sections were taken for immunofluorescence studies.

Wnt signaling pathway = experiment: Immunofluorescence of tumor xenograft sections for Wnt signaling pathway; format: in vivo, human; settings: 1-benzyl I3C treated tumor xenografts vs DMSO
Experimental: (§1) Approximately 1 million G361 melanoma cells in a total volume of 0.1 ml of Matrigel were injected subcutaneously into each lateral flank of NIH III athymic nude mice. The resulting tumors were allowed to grow to a mean starting volume of 146±10 mm^3. The animals were then randomized into two groups; a vehicle control group that was treated with DMSO and an I3C treated group that were injected daily with 200 mg/kg body weight of I3C. The resulting tumor volumes were measured every other day for four weeks using calipers. The tumor volumes were calculated using the standard formula: […], and changes in tumor volumes were calculated using the formula: 100+{(Tf−Ti)/Ti×100}, where Tf is the final mean tumor volume and Ti is the initial mean tumor volume. At terminal sacrifice, tumor xenografts were harvested, and a portion of each tumor was fixed in 4% para-formaldehyde for 1 hour at room temperature, followed by a phosphate-buffered saline (PBS) wash and subsequently immersed in […] overnight at 4° C. The resulting tissues were embedded in OCT and 10 μm thin sections were taken for immunofluorescence studies.

[2] = system: multiple melanoma cell lines; experiment: Flow cytometry analysis of DNA content, multiple melanoma cell lines; format: cell-based, human
Experimental: (§2) Melanoma cells were treated with the indicated concentrations of 1-benzyl I3C in triplicates every 24 hours and harvested at the end of 24, 48 or 72 hours for cell cycle analysis. The DNA content of propidium iodide stained nuclei from harvested cells were determined by flow cytometry. Briefly, cells were hypotonically lysed in […] of DNA staining solution (0.5 mg/mL propidium iodide, 0.1% sodium citrate, and 0.05% Triton-X 100). Emitted fluorescence from the nuclear of wavelengths more than 585 nm was measured with a Coulter Elite instrument with laser output adjusted to deliver 15 mW at 488 nm. Ten thousand nuclei were analyzed from each sample at a rate of 300-500 nuclei/second. The percentage of cells within the G1, S, and G2/M phases of the cell cycle were determined by analysis with the Multicycle computer program provided by Phoenix Flow Systems in the Cancer Research Laboratory Microchemical Facility of the University of California, Berkeley.

G361 cells = experiment: Flow cytometry analysis of DNA content, G361; format: cell-based, human; settings: maximal dose of 200 μM I3C
Experimental: as §2, with “I3C” left out

CDK4 = experiment: Western blot of CDK4; format: cell-based, human; settings: G-361 cells, 48 hours; 200 μM I3C, 10 μM Vemurafenib or 10 μM U0126
Experimental: Western Blot analyses of samples electrophoretically fractionated on 12% acrylamide gels were carried out as previously described (Wagle et al., J. Clin. Oncol. 2011. 29(22):3085-3096; Nguyen et al., Chem. Biol. Interact. 2010. 186(3):255-266). Enhanced chemiluminescence (ECL) Lightening reagents were used to visualize the primary antibody bound protein bands in nitrocellulose membranes and the results captured on ECL Autoradiography Film (GE Healthcare, Piscataway, N.J.). The western blots employed the following primary antibodies: mouse anti-MITF-M (Thermo-scientific), mouse anti-HSP 90 (BD Biosciences), mouse anti-CDK2, rabbit anti-CDK4, rabbit anti-CDK-6, mouse anti-rabbit BRAF, goat anti-LEF-1, rabbit anti-AXIN, mouse anti-BCL2, (Santa Cruz), rabbit anti-P21, mouse anti-Cyclin D1, rabbit anti-MEK-p, rabbit anti-MEK1/2, rabbit anti-GSK3β rabbit anti-LRP6, rabbit anti-LRP6-phospho (Cell signaling), mouse anti-β-catenin (Invitrogen).

DM738 cells = experiment: Flow cytometry analysis of DNA content, DM738; format: cell-based, human; settings: maximal dose of 200 μM I3C
Experimental: as §2, with “I3C” left out

MITF-M = experiment: Immunofluorescence of tumor xenograft sections for MITF-M; format: in vivo, human; settings: I3C 200 mg/kg, terminal sacrifice, relative to vehicle
Experimental: as §1, with “I3C” left out, “[…].” for “I3C.”, “100+{(Tf-Ti)/Ti×100},” for “100+{(Tf−Ti)/Ti×100},”

| SMILES | tumor growth ([1]; 1-benzyl I3C 20 mg/kg body weight subcutaneously everyday, 4-week time course, vs vehicle) | size of the residual tumors at termination of treatment ([1]; 1-benzyl I3C 20 mg/kg, week 4) | effect on Wnt signaling pathway in tumor xenograft sections (Wnt signaling pathway) | time to significant G1 cell cycle arrest ([2]; 20 μM 1-benzyl I3C, all the cell lines) [h] | G1 cell cycle arrest ([2]; varying doses of 1-benzyl I3C, 48 hours) | tumor growth ([1]; I3C 200 mg/kg body weight injected daily, four-week course, vs DMSO vehicle) | G1 cell cycle arrest (G361 cells) | CDK4 protein levels (CDK4) | G1 cell cycle arrest (DM738 cells) | MITF-M protein in tumor xenograft sections (MITF-M) |
| --- | --- | --- | --- | --- | --- | --- | --- | --- | --- | --- |
| OCc1cn(Cc2ccccc2)c2ccccc12 [1-benzyl I3C, 1-benzyl indole-3-carbinol] | strongly attenuated tumor growth | significantly smaller than the vehicle control | mimicked the cell culture data | ≤ 24 | significant G1 cell cycle arrest | – | – | – | – | – |
| OCc1c[nH]c2ccccc12 [I3C, indole-3-carbinol] | – | – | – | – | – | strongly inhibited tumor growth | significant G1 cell cycle arrest | down regulated | significant G1 cell cycle arrest | strong down-regulation of MITF-M protein |
